From US11464749B2, “Bismuth-thiol compositions and methods of use” (Microbion Corporation, priority 2018, dated 2022)
In brackets after ≈: the same amount, converted by molar mass. Where two headings read alike, the source gives them in different places.

Experiments:
[1] = test system: B. cepacia (cepacia complex); experiment: MIC against CF bacterial strains (Example 5); assay type: cell-based; conditions: Burkholderia cepacia
Method: (§1) A range of CF-isolated strains of Mycobacterium avium and Mycobacterium abscessus were included; which allows for understanding of the activity against non-tubercular Mycobacteria (NTM). Two distinct bismuth-thiol compounds were evaluated, including BisEDT and BisBDT. […] The CF-isolates of greater clinical relevance, including both M abscessus spp. and Burkholderia spp., were both consistently found to be much more susceptible to BisEDT and BisBDT.

[2] = test system: B. cepcacia complex (not further speciated); experiment: MIC against CF bacterial strains (Example 5); assay type: cell-based; conditions: beta lactam-S, TMP/SMX-S
Method: as §1

[3] = test system: B. dolosa (cepacia complex); experiment: MIC against CF bacterial strains (Example 5); assay type: cell-based; conditions: Burkholderia dolosa; strain BC 11, CF isolate, beta lactam-R, TMP/SMX-S, FQ-R
Method: as §1

[4] = test system: B. multivorans (cepacia complex); experiment: MIC against CF bacterial strains (Example 5); assay type: cell-based; conditions: Burkholderia multivorans
Method: as §1

M. abscessus complex = experiment: MIC against CF bacterial strains (Example 5); assay type: cell-based, Mycobacterium abscessus; conditions: Mycobacteroides abscessus
Method: as §1

A. fumigatus = experiment: Broth microdilution antifungal susceptibility (Example 13); assay type: cell-based; conditions: for MIC: Aspergillus fumigatus
Escherichia coli = experiment: Broth microdilution MIC (Example 11)
[5] = Single-dose rat PK comparing inhalation, IV and oral dosing
Method: Blood Collection for Bioanalytical Analysis: Following exposure, non-terminal blood collections were performed on 2 animals per sex at 0.5, 2, and 8 hours post exposure. Approximately 1 mL of systemic whole blood was collected by jugular vein into tubes containing K3EDTA as an anticoagulant. The tubes were flash frozen with liquid nitrogen stored without processing at −70 to −90° C. until shipping for analysis using ICP-MS assay for quantitation of bismuth as a surrogate for BisEDT.
Increasing the dose and interval leads to larger fluctuations in tissue and blood levels between peak (after dosing) and trough levels (prior to dosing).

[6] = Rat nose-only inhalation study: whole blood and lung BisEDT; assay type: in vivo, F344 rats; conditions: single inhalation dose 47 μg/kg, 8 hr
Method: Inhalation Exposure: The initial exposure of BisEDT (Bismuth-1,2-ethanedithiol) was formulated as […] at 100 mg/mL in suspension in 0.5% TWEEN 80®, 10 mM sodium phosphate, pH 7.4, in NaCl (adjusted to approximately 300 mOsm). Aerosols were generated with a commercial compressed air jet nebulizer, PAD LC PLUS®, operated with an inlet pressure of 20 psi.
Detailed gross necropsies were performed on all animals (found dead, moribund, or scheduled necropsy) and consisted of a complete external and internal examination including body orifices and cranial, thoracic, and abdominal organs and tissues. All gross findings will be recorded in descriptive terms. […] Lungs collected and weighed.

P. aeruginosa [7] = conditions: P. aeruginosa isolate 103; CLSI QC range shown in parenthesis; cited from earlier work
P. aeruginosa [8] = experiment: FIC checkerboard assay; assay type: cell-based
[9] = ATCC25922, E. coli MMX 102 (ATCC 25922), QC
[10] = ATCCBAA2469, E. coli MMX 5980 (ATCC BAA-2469), NDM-1, Lev^R, MEM^R, CAZ^R, Gm^R
[11] = E. coli MMX 8423, ESBL, Lev^R, CAZ^R, Gm^R
[12] = E. coli MMX 8425, ESBL, Lev^R, CAZ^R, Gm^R
[13] = 24 hours after single inhalation dose
[14] = 4 days (96 hrs) after single inhalation dose

CC(S)C(C)S.[Bi] (centres unmarked) [BisBDT, bismuth-2,3-butanedithiol]
MIC ([1]; strain BC17): 8 µg/mL | MIC ([1]; strain BC 17, CF isolate, beta lactam-R, TMP/SMX-R, FQ-R): 4 µg/mL | MIC ([2]; strain BC 9, CF isolate, FQ-R): 0.5 µg/mL | MIC ([2]; strain PC 213, CF isolate, FQ-S): 1 µg/mL | MIC [3]: 0.5 µg/mL | MIC ([4]; strain BC 5, CF isolate, beta lactam-S, TMP/SMX-S, FQ-I): 2 µg/mL | MIC ([4]; strain BC5b): 1 µg/mL | MIC (M. abscessus complex; AMT0068-40, M abscessus/massiliense complex, read-out: MIC): 0.06 µg/mL | MIC (M. abscessus complex; AMT 0068-40, MABSC CF isolate, macrolide-S, amikacin-I): 0.125 µg/mL | MIC (M. abscessus complex; AMT 0089-5, MABSC CF isolate, macrolide-R, amikacin-R): 0.125 µg/mL | MIC (M. abscessus complex; AMT0119-7, M abscessus/massiliense complex, read-out: MIC): < 0.03 µg/mL | MIC (M. abscessus complex; AMT 0119-7, MABSC CF isolate, macrolide-S, amikacin-I): 0.125 µg/mL | MIC (M. abscessus complex; AMT0130-8, M abscessus/massiliense complex, read-out: MIC): < 0.03 µg/mL | MIC (M. abscessus complex; AMT 0130-8, MABSC CF isolate, macrolide-S, amikacin-I, read-out: MIC): 0.0625 µg/mL | MIC (M. abscessus complex; AMT 0136-10, MABSC CF isolate, macrolide-R, amikacin-R, read-out: MIC): 0.0625 µg/mL | MIC (M. abscessus complex; AMT153-9, M abscessus/massiliense complex, read-out: MIC): < 0.03 µg/mL | MIC (M. abscessus complex; AMT 0153-9, MABSC CF isolate, macrolide-S, amikacin-I): 0.125 µg/mL | MIC (M. abscessus complex; AMT 0157-14, MABSC CF isolate, macrolide-R, amikacin-I): 0.125 µg/mL | MIC (M. abscessus complex; AMT 0166-29, MABSC CF isolate, macrolide-R, amikacin-R): 0.125 µg/mL | MIC (M. abscessus complex; AMT0493-2, M abscessus/massiliense complex, Amikacin resistant, read-out: MIC): 0.125 µg/mL | MIC (M. abscessus complex; AMT 0493-2, MABSC CF isolate, macrolide-S, amikacin-R): 0.5 µg/mL | MIC (M. abscessus complex; ATCC19977, ATCC 19977, M abscessus/massiliense complex, Macrolide resistant (inducible), read-out: MIC): < 0.03 µg/mL | MIC (M. abscessus complex; ATCC19977, ATCC 19977, M. abscessus abscessus, ATCC type strain, read-out: MIC): 0.25 µg/mL | MIC0 24 hr (A. fumigatus; A. fumigatus ATCC MYA-3626, 24 hr): 2 µg/mL | MIC0 24 hr (A. fumigatus; A. fumigatus MMX 5934, 24 hr): 2 µg/mL | MEC at 48 hr (MIC0 not observed) (A. fumigatus; A. fumigatus MMX 5934, 48 hr): 4 µg/mL | MIC (A. fumigatus; ATCC204305, A. fumigatus ATCC 204305, 24 hr, read-out: MIC0 24 hr): 8 µg/mL | MIC (A. fumigatus; ATCC204305, A. fumigatus ATCC 204305, 48 hr, read-out: MEC at 48 hr (MIC0 not observed)): 4 µg/mL | MIC (A. fumigatus; A. fumigatus ATCC MYA-3626, 48 hr, read-out: MIC0 48 hr): 4 µg/mL | MIC (A. fumigatus; A. fumigatus MMX 5939, 24 hr, read-out: MIC0 24 hr): 2 µg/mL | MIC (A. fumigatus; A. fumigatus MMX 5939, 48 hr, read-out: MEC at 48 hr (MIC0 not observed)): 4 µg/mL | MIC (A. fumigatus; read-out: MIC0 48 hr): 1 µg/mL | MIC (Escherichia coli; [9]): 0.5 µg/mL | MIC (Escherichia coli; [10]): 1 µg/mL | MIC (Escherichia coli; [11]): 1 µg/mL | MIC (Escherichia coli; E. coli MMX 8424, ESBL, CAZ^R): 0.5 µg/mL | MIC (Escherichia coli; [12]): 1 µg/mL

C1C[S][Bi]([S]CC[S][Bi]2[S]CC[S]2)[S]1 [BisEDT, bismuth-1,2-ethanedithiol]
lung levels after IV dosing vs inhalation group ([5]; 100 μg/kg IV): < 5% | tolerability ([5]; 100 μg/kg inhalation and IV and 250 μg/kg oral): tolerated | lung levels after oral dosing ([5]; 250 μg/kg oral): no lung levels | equated concentration in lung fluid [5, 13]: 123 µg/mL | lung tissue concentration [5, 13]: 4,093 ng/g | equated concentration in lung fluid [5, 14]: 78 µg/mL | lung tissue concentration [5, 14]: 2,600 ng/g | duration of initial distribution into tissues ([5]; IV dosing): 18 h | Kp ([5]; both, lung versus whole blood, inhaled, 100 μg/kg): ~10 | Mean BisEDT Conc, whole blood [6]: 114 ng/mL | MIC, CLSI QC range (P. aeruginosa [7]): (0.5-4) μg/mL

C[C@@H](O)[C@H]1C(=O)N2C(C(=O)O)=C(S[C@@H]3CN[C@H](C(=O)N(C)C)C3)[C@H](C)[C@H]12 [MEM]
MIC (P. aeruginosa [8]; during FIC testing, P. aeruginosa isolate 103 (ATCC 25922), each agent tested alone, one replicate, for QC): 1 µg/mL | MIC (P. aeruginosa [8]; during FIC testing, P. aeruginosa isolate 6322 (MEM-R, TOB-R, AMK-R, CIP-R, AZT-R)): 16 µg/mL | MIC (P. aeruginosa [8]; during FIC testing, P. aeruginosa isolate 6977 (MEM-I, TOB-R, CIP-R, AZT-I)): 8 µg/mL | MIC (P. aeruginosa [8]; during FIC testing, P. aeruginosa isolate 7745 (MEM-R, CIP-R, AZT-R)): 16 µg/mL | MIC (P. aeruginosa [8]; during FIC testing, P. aeruginosa isolate 8798 (MEM-R, TOB-R, AMK-R, CIP-R, AZT-R, COL-R)): 32 µg/mL | MIC (P. aeruginosa [8]; during FIC testing, P. aeruginosa isolate 9108 (CIP-R, AZT-I)): 1 µg/mL

C[C@@H](O)[C@H]1C(=O)N2C(C(=O)O)=C(S[C@@H]3CN[C@H](C(=O)N(C)C)C3)[C@H](C)[C@H]12 [Meropenem, reference compound]
MICB (Drug B in combination) (P. aeruginosa [8]; P. aeruginosa 6322, with BisEDT, checkerboard rows C-G): 16 µg/mL | MIC (P. aeruginosa [8]; Pseudomonas aeruginosa, P. aeruginosa 6322, checkerboard panel BisEDT/Meropenem, read-out: Drug B MIC (alone)): 16 µg/mL | MIC (P. aeruginosa [8]; Pseudomonas aeruginosa, P. aeruginosa 6977, Meropenem alone (checkerboard with BisEDT), read-out: Drug B MIC): 8 µg/mL | MIC (P. aeruginosa [8]; Pseudomonas aeruginosa, P. aeruginosa 7745, Meropenem alone (checkerboard with BisEDT), read-out: Drug B MIC): 16 µg/mL | MIC (P. aeruginosa [8]; Pseudomonas aeruginosa, P. aeruginosa 8798, Meropenem alone (checkerboard with BisEDT), read-out: Drug B MIC): 32 µg/mL | MIC (P. aeruginosa [8]; Pseudomonas aeruginosa, P. aeruginosa 9108, Meropenem alone (checkerboard with BisEDT), read-out: Drug B MIC): 1 µg/mL | MIC (Escherichia coli; [9]): 0.03 µg/mL (≈ 0.0782 µM) | MIC (Escherichia coli; [10]): 32 µg/mL (≈ 83.4 µM) | MIC (Escherichia coli; [11]): 0.03 µg/mL (≈ 0.0782 µM) | MIC (Escherichia coli; E. coli MMX 8424, ESBL, CAZ^R): 0.03 µg/mL (≈ 0.0782 µM) | MIC (Escherichia coli; [12]): 0.015 µg/mL (≈ 0.0391 µM)
